# According to patent publication US5624923A, “Tricyclic diazepine vasopressin antagonists and oxytocin antagonists” (priority 1995, dated 1997):
# pIC50: −log10 of the molar value. Values joined by “and” are separate entries in the source; they are usually repeats but may differ in a detail not shown here. Identical values can stand only once.
# Assays:
# [1] = test system: Vasopressin V1; experiment: Vasopressin V1 Antagonist Activity in Conscious Rats (vasopressin vasopressor response); assay type: in vivo, rat; design: Average Change: unit not given here; conditions: for % Inhibition / Average Change: SHR; for Max. % Inhibition / Time (of max. % inhibition): 10 mg/kg i.v.
# How it was run: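 Conscious rats are restrained supine, and under local 2% procaine a PE 10/20 cannula is passed through the ventral caudal tail artery into the lower abdominal aorta. The caudal vein is cannulated for intravenous dosing. Blood pressure is recorded with a Statham P23Db transducer, and vasopressin injections are repeated after compound dosing. Percent antagonism is calculated against the pre-drug vasopressor response taken as 100%.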
# [2] = test system: Vasopressin V2; experiment: Vasopressin V2 Antagonist Activity in Conscious Hydrated Rats; assay type: in vivo, rat; conditions: AVP 0.4 μg/kg i.p.
# How it was run: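 Four-hour urine output, osmolality and electrolytes (Na+, K+, Cl−) recorded in water-loaded rats (30 mL/kg deionized water orally) given AVP i.p. at 0.4 μg/kg. Test compounds were given orally at 0.1–100 mg/kg 1 h before AVP; 2–4 rats per compound.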
# [3] = molecular target: T1, Rat Hepatic V1 Receptors (Rattus norvegicus, UniProt P30560); experiment: Binding Assay to Rat Hepatic V1 Receptors; conditions: rat liver membranes; read-out: V1 IC50
# T1 construct: Rat liver plasma membranes expressing the vasopressin V1 receptor subtypes; from tissue; host or cells: rat liver plasma membranes
# [4] = 3 mg/kg i.v., VAS 0.01 i.u./kg, 30 min
# [5] = 3 mg/kg i.v., VAS 0.01 i.u./kg, 60 min
# [6] = 3 mg/kg i.v., VAS 0.01 i.u./kg, 90 min
# [7] = 3 mg/kg i.v., VAS 0.01 i.u./kg, 120 min
# [8] = 3 mg/kg i.v., VAS 0.01 i.u./kg, 180 min
# [9] = 3 mg/kg i.v., VAS 0.01 i.u./kg, 240 min
# [10] = 3 mg/kg i.v., VAS 0.01 i.u./kg, 300 min
# [11] = 3 mg/kg i.v., VAS 0.02 i.u./kg, 30 min
# [12] = 3 mg/kg i.v., VAS 0.02 i.u./kg, 60 min
# [13] = 3 mg/kg i.v., VAS 0.02 i.u./kg, 90 min
# [14] = 3 mg/kg i.v., VAS 0.02 i.u./kg, 120 min
# [15] = 3 mg/kg i.v., VAS 0.02 i.u./kg, 300 min
# [16] = 10 mg/kg p.o., VAS 0.01 i.u./kg, 30 min
# [17] = 10 mg/kg p.o., VAS 0.01 i.u./kg, 60 min
# [18] = 10 mg/kg p.o., VAS 0.01 i.u./kg, 120 min
# [19] = 10 mg/kg p.o., VAS 0.01 i.u./kg, 300 min
# [20] = 10 mg/kg p.o., VAS 0.02 i.u./kg, 30 min
# [21] = 10 mg/kg p.o., VAS 0.02 i.u./kg, 60 min
# [22] = 10 mg/kg p.o., VAS 0.02 i.u./kg, 300 min
# [23] = 30 mg/kg p.o., VAS 0.01 i.u./kg, 30 min
# [24] = 30 mg/kg p.o., VAS 0.01 i.u./kg, 60 min
# [25] = 30 mg/kg p.o., VAS 0.01 i.u./kg, 90 min
# [26] = 30 mg/kg p.o., VAS 0.01 i.u./kg, 120 min
# [27] = 30 mg/kg p.o., VAS 0.01 i.u./kg, 180 min
# [28] = 30 mg/kg p.o., VAS 0.01 i.u./kg, 240 min
# [29] = 30 mg/kg p.o., VAS 0.02 i.u./kg, 30 min
# [30] = 30 mg/kg p.o., VAS 0.02 i.u./kg, 60 min
# [31] = 30 mg/kg p.o., VAS 0.02 i.u./kg, 90 min
# [32] = 30 mg/kg p.o., VAS 0.02 i.u./kg, 120 min
# [33] = 30 mg/kg p.o., VAS 0.02 i.u./kg, 180 min
# [34] = 30 mg/kg p.o., VAS 0.02 i.u./kg, 240 min
# T1 sequence (P30560 whole entry): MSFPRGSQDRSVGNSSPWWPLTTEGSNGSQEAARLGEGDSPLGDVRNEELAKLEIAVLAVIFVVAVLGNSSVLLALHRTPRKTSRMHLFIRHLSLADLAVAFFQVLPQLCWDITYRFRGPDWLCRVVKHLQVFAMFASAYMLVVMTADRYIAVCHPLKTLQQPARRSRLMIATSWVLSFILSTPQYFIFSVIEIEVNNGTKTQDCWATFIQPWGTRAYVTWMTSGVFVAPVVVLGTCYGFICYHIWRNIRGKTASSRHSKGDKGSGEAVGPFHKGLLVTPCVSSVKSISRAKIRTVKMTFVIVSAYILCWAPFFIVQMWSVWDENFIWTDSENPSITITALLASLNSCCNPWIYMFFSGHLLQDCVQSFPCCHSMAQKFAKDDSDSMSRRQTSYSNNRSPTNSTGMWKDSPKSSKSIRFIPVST
compound,measurement,setting,value
"Cc1ccccc1C(=O)Nc1ccc(C(=O)N2Cc3cccn3Cc3ccccc32)cc1 [Example 3, 2-Methyl-N-[4-(5H-pyrrolo[2,1-c][1,4]-benzodiazepin-10(11H)-ylcarbonyl)phenyl]benzamide]",% Inhibition,[1]; [4],70% and 69%
same,Average Change,[1]; [4],15
same,% Inhibition,[1]; [5],75% and 57%
same,Average Change,[1]; [5],12.5 and 21
same,% Inhibition,[1]; [6],65% and 76%
same,Average Change,[1]; [6],17.5 and 12
same,% Inhibition,[1]; [7],60% and 58%
same,Average Change,[1]; [7],20 and 20.5
same,% Inhibition,[1]; [8],40% and 57%
same,Average Change,[1]; [8],30 and 21
same,% Inhibition,[1]; [9],20% and 35%
same,Average Change,[1]; [9],40 and 32
same,% Inhibition,[1]; [10],61%
same,Average Change,[1]; [10],19
same,% Inhibition,[1]; [11],57%
same,Average Change,[1]; [11],23.5 and 22
same,% Inhibition,[1]; [12],68% and 44%
same,Average Change,[1]; [12],17.5 and 29
same,% Inhibition,[1]; [13],73% and 46%
same,Average Change,[1]; [13],15 and 28
same,% Inhibition,[1]; [14],41% and 64%
same,Average Change,[1]; [14],32.5 and 18.5
same,Average Change,"[1]; 3 mg/kg i.v., VAS 0.02 i.u./kg, 180 min",55 and 28.5
same,Average Change,"[1]; 3 mg/kg i.v., VAS 0.02 i.u./kg, 240 min",52.5 and 27.5
same,% Inhibition,[1]; [15],41%
same,Average Change,[1]; [15],30.5
same,% Inhibition,[1]; [16],78% and 71% and 73%
same,Average Change,[1]; [16],12.5 and 10 and 11
same,% Inhibition,[1]; [17],70% and 71%
same,Average Change,[1]; [17],17.5 and 10.5 and 11.5
same,% Inhibition,"[1]; 10 mg/kg p.o., VAS 0.01 i.u./kg, 90 min",81% and 70%
same,% Inhibition,[1]; [18],74% and 59% and 69%
same,Average Change,[1]; [18],15 and 14.5 and 12.5
same,% Inhibition,"[1]; 10 mg/kg p.o., VAS 0.01 i.u./kg, 180 min",65% and 77% and 61%
same,% Inhibition,"[1]; 10 mg/kg p.o., VAS 0.01 i.u./kg, 240 min",61% and 76% and 51%
same,% Inhibition,[1]; [19],59%
same,Average Change,[1]; [19],16.5
same,% Inhibition,[1]; [20],65% and 66% and 70%
same,Average Change,[1]; [20],17.5 and 18.5 and 16
same,% Inhibition,[1]; [21],55% and 66% and 58%
same,Average Change,[1]; [21],22.5 and 18.5
same,% Inhibition,[1]; [22],56%
same,Average Change,[1]; [22],24
same,% Inhibition,[1]; [23],72%
same,Average Change,[1]; [23],15
same,% Inhibition,[1]; [24],57%
same,Average Change,[1]; [24],22.5
same,% Inhibition,[1]; [25],81%
same,Average Change,[1]; [25],10
same,% Inhibition,[1]; [26],81%
same,Average Change,[1]; [26],10
same,% Inhibition,[1]; [27],81%
same,Average Change,[1]; [27],10
same,% Inhibition,[1]; [28],91%
same,Average Change,[1]; [28],5
same,% Inhibition,[1]; [29],62%
same,Average Change,[1]; [29],20
same,% Inhibition,[1]; [30],57%
same,Average Change,[1]; [30],22.5
same,% Inhibition,[1]; [31],62%
same,Average Change,[1]; [31],20
same,% Inhibition,[1]; [32],76%
same,Average Change,[1]; [32],12.5
same,% Inhibition,[1]; [33],67%
same,Average Change,[1]; [33],17.5
same,% Inhibition,[1]; [34],81%
same,Average Change,[1]; [34],10
same,Osmolality,[2]; 1 mg/kg orally,515 ± 79 mOsm/kg
same,Urine Volume,[2]; 1 mg/kg orally,6.5 ± 1 ml/4 hrs
same,Osmolality,[2]; 3 mg/kg orally,584 ± 56 mOsm/kg
same,Urine Volume,[2]; 3 mg/kg orally,9.6 ± 0.9 ml/4 hrs
same,Osmolality,[2]; 10 mg/kg orally,567 ± 33 mOsm/kg
same,Urine Volume,[2]; 10 mg/kg orally,15.8 ± 1 ml/4 hrs
same,pIC50,[3],7.42
"O=C(Nc1ccc(C(=O)N2Cc3ccc(Cn4ccnc4)n3Cc3ccccc32)cc1)c1ccc(Cl)cc1Cl [Example 582, 2,4-Dichloro-N-[4-[[3-(1H-imidazol-1-ylmethyl)-5H-pyrrolo[2,1-c][1,4]benzodiazepin-10(11H)-yl]carbonyl]phenyl]benzamide]",Max. % Inhibition,[1],75%
same,Time (of max. % inhibition),[1],170 min
same,Osmolality,[2]; 10 mg/kg orally,604 mOsm/kg
same,Urine Volume,[2]; 10 mg/kg orally,9.5 ml/4 hrs
same,pIC50,[3],6.89
"O=C(Nc1ccc(C(=O)N2Cc3cccn3Cc3ccccc32)cc1)c1c(Cl)cccc1Cl [Example 469, N-[4-(5H-pyrrolo[2,1-c][1,4]benzodiazepin-10(11H)-ylcarbonyl)phenyl]-2,6-dichlorobenzamide]",Max. % Inhibition,[1],69%
same,Time (of max. % inhibition),[1],30 min
same,Osmolality,[2]; 10 mg/kg orally,548 mOsm/kg
same,Urine Volume,[2]; 10 mg/kg orally,11.3 ml/4 hrs
same,pIC50,[3],7.03
